Assay [1] deals with T1, DGKα (hDGKalpha(1-735)-N-His) (Homo sapiens, UniProt P23743).
T1 construct: hDGKalpha(1-735)-N-His; His (N); made in house; host or cells: Sf21 insect cells (baculovirus)
Put plainly: In vitro DGK inhibition assay, DGKalpha ADP Glo (in house). The class given is biochemical. The following applies: 4 nM DGKα, 25 μM ATP, 125 uM DLG in liposomes, 1 hour reaction. Summed up: (§1)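 ADP-Glo luminescence measured ADP formed over 1 h by Sf21-expressed full-length human enzymes: DGKα at 4 nM with 25 µM ATP, DGKζ at 2 nM with 50 µM ATP, both on 125 µM DLG in PS/PC liposomes. Dose–response used 11 threefold dilutions at 2% final DMSO.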
(ADP-Glo first removes unused ATP, then detects ADP through luciferase.)

Assay [2] addresses T2, DGKζ (hDGKzeta(1-928)-N-His) (Homo sapiens, UniProt Q13574).
T2 construct: hDGKzeta(1-928)-N-His; His (N); made in house; host or cells: Sf21 insect cells (baculovirus)
Put plainly: In vitro DGK inhibition assay, DGKzeta ADP Glo (in house). Type of assay: biochemical. Particulars: 2 nM DGKζ, 50 μM ATP, 125 uM DLG in liposomes, 1 hour reaction. Summed up: as §1

SMILES strings stand for the structures.

As a reminder, the IC50 is the concentration needed to halve the response being measured.

T2 sequence (Q13574 whole entry): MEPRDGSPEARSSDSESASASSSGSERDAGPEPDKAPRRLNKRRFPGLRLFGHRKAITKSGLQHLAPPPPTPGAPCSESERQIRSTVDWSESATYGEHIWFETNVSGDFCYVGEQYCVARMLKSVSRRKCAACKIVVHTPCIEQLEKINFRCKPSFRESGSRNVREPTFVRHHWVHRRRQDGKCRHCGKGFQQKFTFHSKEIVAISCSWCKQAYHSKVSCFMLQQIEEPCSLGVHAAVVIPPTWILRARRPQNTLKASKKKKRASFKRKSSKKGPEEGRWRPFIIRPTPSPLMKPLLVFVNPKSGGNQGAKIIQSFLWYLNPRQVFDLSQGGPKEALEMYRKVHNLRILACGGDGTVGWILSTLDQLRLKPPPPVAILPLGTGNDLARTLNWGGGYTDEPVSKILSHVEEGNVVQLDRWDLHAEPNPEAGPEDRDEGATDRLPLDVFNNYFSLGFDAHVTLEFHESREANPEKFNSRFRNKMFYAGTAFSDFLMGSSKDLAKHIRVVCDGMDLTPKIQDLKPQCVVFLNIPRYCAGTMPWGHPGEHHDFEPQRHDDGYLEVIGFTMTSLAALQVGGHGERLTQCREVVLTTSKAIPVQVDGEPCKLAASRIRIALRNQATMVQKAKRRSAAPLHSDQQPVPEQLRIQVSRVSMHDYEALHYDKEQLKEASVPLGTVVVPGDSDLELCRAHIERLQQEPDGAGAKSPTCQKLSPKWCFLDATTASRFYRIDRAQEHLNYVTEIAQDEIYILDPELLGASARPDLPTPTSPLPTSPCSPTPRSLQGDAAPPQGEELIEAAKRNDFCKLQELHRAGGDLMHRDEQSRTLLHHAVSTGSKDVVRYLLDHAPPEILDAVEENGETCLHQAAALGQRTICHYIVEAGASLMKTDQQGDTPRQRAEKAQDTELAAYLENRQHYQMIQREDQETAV
T1 sequence (P23743 whole entry): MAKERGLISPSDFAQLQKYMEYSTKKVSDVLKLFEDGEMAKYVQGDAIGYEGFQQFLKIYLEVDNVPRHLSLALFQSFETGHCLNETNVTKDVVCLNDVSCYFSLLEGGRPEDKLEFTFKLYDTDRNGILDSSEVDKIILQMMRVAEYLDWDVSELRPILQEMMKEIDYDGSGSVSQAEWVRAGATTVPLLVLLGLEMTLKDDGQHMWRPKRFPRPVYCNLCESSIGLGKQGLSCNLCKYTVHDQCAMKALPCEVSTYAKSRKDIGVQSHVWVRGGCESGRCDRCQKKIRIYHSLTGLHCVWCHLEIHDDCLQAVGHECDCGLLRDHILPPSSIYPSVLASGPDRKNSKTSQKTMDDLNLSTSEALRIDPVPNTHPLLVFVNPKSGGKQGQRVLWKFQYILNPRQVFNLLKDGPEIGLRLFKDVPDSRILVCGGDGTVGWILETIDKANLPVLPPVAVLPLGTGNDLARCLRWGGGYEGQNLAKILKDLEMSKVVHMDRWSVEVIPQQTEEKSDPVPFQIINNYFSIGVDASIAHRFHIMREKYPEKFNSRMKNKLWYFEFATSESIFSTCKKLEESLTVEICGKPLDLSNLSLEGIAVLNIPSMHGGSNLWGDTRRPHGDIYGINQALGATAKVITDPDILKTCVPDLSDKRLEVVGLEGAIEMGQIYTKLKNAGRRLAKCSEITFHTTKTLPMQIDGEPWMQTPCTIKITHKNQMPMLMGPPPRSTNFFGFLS

As for `N#CC1CN(c2nnc(-c3ccc4c(c3)N(Cc3ccc(-c5noc(C(F)(F)F)n5)cc3)C(=O)[C@@H](N)CS4(=O)=O)o2)CCO1` (stereo partly drawn) [Example 163, 4-[5-[(3R)-3-amino-1,1,4-trioxo-5-[[4-[5-(trifluoromethyl)-1,2,4-oxadiazol-3-yl]phenyl]methyl]-2,3-dihydro-1λ^6,5-benzothiazepin-7-yl]-1,3,4-oxadiazol-2-yl]morpholine-2-carbonitrile], the concentration for half-maximal inhibition (IC50) in assay [1] was more than 62.5 µM; in assay [2] it was 10.6 µM.
For `CC(c1nc(-c2ccc(CN3C(=O)[C@@H](N)CS(=O)(=O)c4ccc(-c5nnc(C6(N)CCCCC6)o5)cc43)cc2)no1)C(F)(F)F` (stereo partly drawn) [Example 98, (3R)-3-amino-7-[5-(1-aminocyclohexyl)-1,3,4-oxadiazol-2-yl]-1,1-dioxo-5-[[4-[5-(2,2,2-trifluoro-1-methyl-ethyl)-1,2,4-oxadiazol-3-yl]phenyl]methyl]-2,3-dihydro-1λ^6,5-benzothiazepin-4-one], in that order: 23.8 µM and 1.03 µM.
For `N[C@H]1CS(=O)(=O)c2ccc(-c3noc(-c4cccnc4C(F)(F)F)n3)cc2N(Cc2ccc(-c3noc(C4CC4)n3)cc2)C1=O` [Example 87, (3R)-3-amino-5-[[4-(5-cyclopropyl-1,2,4-oxadiazol-3-yl)phenyl]methyl]-1,1-dioxo-7-[5-[2-(trifluoromethyl)-3-pyridyl]-1,2,4-oxadiazol-3-yl]-2,3-dihydro-1λ^6,5-benzothiazepin-4-one], in that order: more than 62.5 µM and 2.31 µM.
Take `N[C@H]1CS(=O)(=O)c2ccc(-c3nnc(C4(C5CC5)CCCO4)o3)cc2N(Cc2ccc(-c3nnc(C(F)(F)F)o3)cc2)C1=O` (stereo partly drawn) [Example 97, (3R)-3-amino-7-[5-(2-cyclopropyltetra-hydrofuran-2-yl)-1,3,4-oxadiazol-2-yl]-1,1-dioxo-5-[[4-[5-(trifluoromethyl)-1,3,4-oxadiazol-2-yl]phenyl]methyl]-2,3-dihydro-1λ6,5-benzothiazepin-4-one]: the IC50 in assay [1] stood at 4.68 µM; in assay [2], 2.08 µM.
For `N[C@H]1CS(=O)(=O)c2ccc(-c3noc(-c4cccnc4Cl)n3)cc2N(Cc2ccc(-c3noc(C4CC4)n3)cc2)C1=O` [Example 85, (3R)-3-amino-7-[5-(2-chloro-3-pyridyl)-1,2,4-oxadiazol-3-yl]-5-[[4-(5-cyclopropyl-1,2,4-oxadiazol-3-yl)phenyl]methyl]-1,1-dioxo-2,3-dihydro-1λ^6,5-benzothiazepin-4-one], in that order: more than 62.5 µM and 2.1 µM.
Turning to `COC(F)(c1nnc(-c2ccc3c(c2)N(Cc2ccc(-c4nnc(C5CC5)o4)cc2)C(=O)[C@@H](N)CS3(=O)=O)o1)C(F)(F)F` (stereo partly drawn) [Example 65], the IC50 was determined as 2.49 µM in assay [1] and 6.44 µM in assay [2].
As to `N[C@H]1CS(=O)(=O)c2ccc(-c3nnc(N4CCOC(C(F)(F)F)C4)o3)cc2N(Cc2ccc(-c3ccc(C(F)(F)F)cc3)cc2)C1=O` (stereo partly drawn) [Example 73, (3R)-3-amino-1,1-dioxo-7-[5-[2-(trifluoromethyl)morpholin-4-yl]-1,3,4-oxadiazol-2-yl]-5-[[4-[4-(trifluoromethyl)phenyl]phenyl]methyl]-2,3-dihydro-1λ^6,5-benzothiazepin-4-one], the values for the IC50 in assay [1] and in assay [2] were more than 62.5 µM and 13.6 µM, respectively.
As to `N[C@H]1CS(=O)(=O)c2ccc(-c3nnc(N4CCC(F)(F)CC4)o3)cc2N(Cc2ccc(-c3nnc(C(F)(F)F)o3)cc2)C1=O` [Example 71, (3R)-3-amino-7-[5-(4,4-difluoro-1-piperidyl)-1,3,4-oxadiazol-2-yl]-1,1-dioxo-5-[[4-[5-(trifluoromethyl)-1,3,4-oxadiazol-2-yl]phenyl]methyl]-2,3-dihydro-1λ^6,5-benzothiazepin-4-one], the IC50 in assay [1] is 24.7 µM; in assay [2], 0.895 µM.
`Cn1ccc(-c2ccc(CN3C(=O)[C@@H](N)CS(=O)(=O)c4ccc(-c5nnc(C(C)(C)C)o5)cc43)cc2)n1` [Example 21]: the IC50 was determined as 16.8 µM in assay [1] and 2.31 µM in assay [2].
Taken in the same sequence, the figures for `CC(C)(C)c1nnc(-c2ccc3c(c2)N(Cc2ccc(-n4cnc(C(F)(F)F)c4)cc2)C(=O)[C@@H](N)CS3(=O)=O)o1` [Example 28, (3R)-3-amino-7-(5-tert-butyl-1,3,4-oxadiazol-2-yl)-1,1-dioxo-5-[[4-[4-(trifluoromethyl)imidazol-1-yl]phenyl]methyl]-2,3-dihydro-1λ^6,5-benzothiazepin-4-one] were 37.3 µM and 4.26 µM.
As for `N[C@H]1CS(=O)(=O)c2ccc(-c3nnc(N4CCOC(C(F)(F)F)C4)o3)cc2N(Cc2ccc(-c3noc(C(F)(F)F)n3)cc2)C1=O` (stereo partly drawn) [Example 74, (3R)-3-amino-1,1-dioxo-7-[5-[2-(trifluoromethyl)morpholin-4-yl]-1,3,4-oxadiazol-2-yl]-5-[[4-[5-(trifluoromethyl)-1,2,4-oxadiazol-3-yl]phenyl]methyl]-2,3-dihydro-1λ^6,5-benzothiazepin-4-one], the IC50 in assay [1] worked out at 3.66 µM; in assay [2] it was 0.77 µM.
For the compound `N[C@H]1CS(=O)(=O)c2ccc(-c3nnc(C4(CO)CCCO4)o3)cc2N(Cc2ccc(-c3ccc(C(F)(F)F)cc3)cc2)C1=O` (stereo partly drawn) [Example 55], the IC50 in assay [1] is more than 62.5 µM; in assay [2] it was 20.3 µM.
Taken in the same sequence, the figures for `CC(C)(c1nnc(-c2ccc3c(c2)N(Cc2ccc(-c4noc(C5CC5)n4)cc2)C(=O)[C@@H](N)CS3(=O)=O)o1)C(F)(F)F` [Example 167, (3R)-3-amino-5-[[4-(5-cyclopropyl-1,2,4-oxadiazol-3-yl)phenyl]methyl]-1,1-dioxo-7-[5-(2,2,2-trifluoro-1,1-dimethyl-ethyl)-1,3,4-oxadiazol-2-yl]-2,3-dihydro-1λ^6,5-benzothiazepin-4-one] were more than 62.5 µM and 0.924 µM.
Regarding `Cc1nc(F)ccc1-c1nc(-c2ccc3c(c2)N(Cc2ccc(-c4noc(C5CC5)n4)cc2)C(=O)[C@@H](N)CS3(=O)=O)no1` [Example 86, (3R)-3-amino-5-[[4-(5-cyclopropyl-1,2,4-oxadiazol-3-yl)phenyl]methyl]-7-[5-(6-fluoro-2-methyl-3-pyridyl)-1,2,4-oxadiazol-3-yl]-1,1-dioxo-2,3-dihydro-1λ^6,5-benzothiazepin-4-one], the IC50 in assay [1] is more than 62.5 µM; in assay [2], 0.642 µM.
Taken in the same sequence, the figures for `COC(=O)N1CC2CC(c3nnc(-c4ccc5c(c4)N(Cc4ccc(-c6ccc(OC)cc6)cc4)C(=O)[C@@H](N)CS5(=O)=O)o3)(C2)C1` [Example 59, methyl 1-[5-[(3R)-3-amino-5-[[4-(4-methoxyphenyl)phenyl]methyl]-1,1,4-trioxo-2,3-dihydro-1λ^6,5-benzothiazepin-7-yl]-1,3,4-oxadiazol-2-yl]-3-azabicyclo[3.1.1]heptane-3-carboxylate] were 3.04 µM and 1.14 µM.
`COc1ccc(-c2ccc(CN3C(=O)[C@@H](N)CS(=O)(=O)c4ccc(-c5nnc(C6(CO)CCCO6)o5)cc43)cc2)cc1` (stereo partly drawn) [Example 63, (3R)-3-amino-7-[5-[2-(hydroxymethyl)tetrahydrofuran-2-yl]-1,3,4-oxadiazol-2-yl]-5-[[4-(4-methoxyphenyl)phenyl]methyl]-1,1-dioxo-2,3-dihydro-1λ^6,5-benzothiazepin-4-one]: the IC50 in assay [1] amounted to 33.7 µM; in assay [2] it was 1.72 µM.
Taken in the same sequence, the figures for `CC(C)(C#N)c1nnc(-c2ccc3c(c2)N(Cc2ccc(-c4ccc(C(F)(F)F)cc4)cc2)C(=O)[C@@H](N)CS3(=O)=O)o1` [Example 46] were 16.2 µM and 1.27 µM.
For the compound `COCCN1CC(c2nnc(-c3ccc4c(c3)N(Cc3ccc(-c5ccc(OC)cc5)cc3)C(=O)[C@@H](N)CS4(=O)=O)o2)CC(F)(F)C1` (stereo partly drawn) [Example 183, (3R)-3-amino-7-[5-[5,5-difluoro-1-(2-methoxyethyl)-3-piperidyl]-1,3,4-oxadiazol-2-yl]-5-[[4-(4-methoxyphenyl)phenyl]methyl]-1,1-dioxo-2,3-dihydro-1λ^6,5-benzothiazepin-4-one], the IC50 in assay [1] is more than 62.5 µM; in assay [2] it was 0.97 µM.
With `CC(C)(C)c1nnc(-c2ccc3c(c2)N(Cc2ccc(-c4nc(C(F)(F)F)co4)cc2)C(=O)[C@@H](N)CS3(=O)=O)o1` [Example 89, (3R)-3-amino-7-(5-tert-butyl-1,3,4-oxadiazol-2-yl)-1,1-dioxo-5-[[4-[4-(trifluoromethyl)oxazol-2-yl]phenyl]methyl]-2,3-dihydro-1λ^6,5-benzothiazepin-4-one], the values for the half-maximal inhibitory concentration (IC50) in assay [1] and in assay [2] were 8.27 µM and 0.613 µM, respectively.
For `CCN1CC(c2nnc(-c3ccc4c(c3)N(Cc3ccc(-c5noc(C(C)(C)C)n5)cc3)C(=O)[C@@H](N)CS4(=O)=O)o2)CC(F)(F)C1` (stereo partly drawn) [Example 181, (3R)-3-amino-5-[[4-(5-tert-butyl-1,2,4-oxadiazol-3-yl)phenyl]methyl]-7-[5-(1-ethyl-5,5-difluoro-3-piperidyl)-1,3,4-oxadiazol-2-yl]-1,1-dioxo-2,3-dihydro-1λ^6,5-benzothiazepin-4-one], the IC50 in assay [1] was more than 62.5 µM; in assay [2], 0.2 µM.
For `CC(C)(C)c1nnc(-c2ccc3c(c2)N(Cc2ccc(-n4cc(C(F)(F)F)cn4)cc2)C(=O)[C@@H](N)CS3(=O)=O)o1` [Example 25, (3R)-3-amino-7-(5-tert-butyl-1,3,4-oxadiazol-2-yl)-1,1-dioxo-5-[[4-[4-(trifluoromethyl)pyrazol-1-yl]phenyl]methyl]-2,3-dihydro-1λ^6,5-benzothiazepin-4-one], in that order: 3.54 µM and 1.27 µM.

Values taken from patent US20260138976A1 (Hoffmann-La Roche Inc., priority 2022, published 2026).
